What was measured:
Experiment in all cases: relative viability (nuclei count vs DMSO), 5 days (fraction); higher = more cells survive
17-AAG + Lapatinib = compound: C=CCNC1=C2C[C@@H](C)C[C@H](OC)[C@H](O)[C@@H](C)/C=C(\C)[C@H](OC(N)=O)[C@@H](OC)/C=C\C=C(/C)C(=O)NC(=CC1=O)C2=O [17-AAG] + CS(=O)(=O)CCNCc1ccc(-c2ccc3ncnc(Nc4ccc(OCc5cccc(F)c5)c(Cl)c4)c3c2)o1 [Lapatinib] (partner 2 µM)
Outline: (§1)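 Medians of duplicate plates are given as relative viability. That measure is the nuclei count in treated wells divided by the count in vehicle wells. Counts were taken on 4× images of lung cancer cell lines in 1536-well plates, 5 days after pin-tool dosing the day after seeding with one drug alone or a fixed anchor-drug dose plus five library-drug doses (not always all listed) in √10 steps.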

17-AAG + Bortezomib = compound: C=CCNC1=C2C[C@@H](C)C[C@H](OC)[C@H](O)[C@@H](C)/C=C(\C)[C@H](OC(N)=O)[C@@H](OC)/C=C\C=C(/C)C(=O)NC(=CC1=O)C2=O [17-AAG] + CC(C)C[C@H](NC(=O)[C@H](Cc1ccccc1)NC(=O)c1cnccn1)B(O)O [Bortezomib] (partner 0.002 µM)
Outline: as §1

17-AAG + Decitabine = compound: C=CCNC1=C2C[C@@H](C)C[C@H](OC)[C@H](O)[C@@H](C)/C=C(\C)[C@H](OC(N)=O)[C@@H](OC)/C=C\C=C(/C)C(=O)NC(=CC1=O)C2=O [17-AAG] + Nc1ncn([C@H]2C[C@H](O)[C@@H](CO)O2)c(=O)n1 [Decitabine] (partner 2 µM)
Outline: as §1

17-AAG + AZD7762 = compound: C=CCNC1=C2C[C@@H](C)C[C@H](OC)[C@H](O)[C@@H](C)/C=C(\C)[C@H](OC(N)=O)[C@@H](OC)/C=C\C=C(/C)C(=O)NC(=CC1=O)C2=O [17-AAG] + NC(=O)Nc1cc(-c2cccc(F)c2)sc1C(=O)N[C@H]1CCCNC1 [AZD7762] (partner 0.2 µM)
Outline: as §1

Row | Cell Line | relative viability (17-AAG + Lapatinib; first compound 0.00128 µM) | relative viability (17-AAG + Lapatinib; first compound 0.004048 µM) | relative viability (17-AAG + Lapatinib; first compound 0.0128 µM) | relative viability (17-AAG + Lapatinib; first compound 0.04048 µM) | relative viability (17-AAG + Lapatinib; first compound 0.128 µM) | relative viability (17-AAG + Bortezomib; first compound 0.00128 µM) | relative viability (17-AAG + Bortezomib; first compound 0.004048 µM) | relative viability (17-AAG + Bortezomib; first compound 0.0128 µM) | relative viability (17-AAG + Bortezomib; first compound 0.04048 µM) | relative viability (17-AAG + Bortezomib; first compound 0.128 µM) | relative viability (17-AAG + Decitabine; first compound 0.00128 µM) | relative viability (17-AAG + Decitabine; first compound 0.004048 µM) | relative viability (17-AAG + Decitabine; first compound 0.0128 µM) | relative viability (17-AAG + Decitabine; first compound 0.04048 µM) | relative viability (17-AAG + Decitabine; first compound 0.128 µM) | relative viability (17-AAG + AZD7762; first compound 0.00128 µM) | relative viability (17-AAG + AZD7762; first compound 0.004048 µM) | relative viability (17-AAG + AZD7762; first compound 0.0128 µM) | relative viability (17-AAG + AZD7762; first compound 0.04048 µM) | relative viability (17-AAG + AZD7762; first compound 0.128 µM)
1 | NCI-H322M | 0.616 | 0.612 | 0.65 | 0.522 | 0.294 | 1.28 | 1.38 | 1.35 | 0.929 | 0.493 | 0.811 | 0.706 | 0.641 | 0.475 | 0.442 | 0.633 | 0.415 | 0.405 | 0.382 | 0.413
2 | NCI-H460 | 0.962 | 0.451 | 0.016 | 0.0135 | 0.0137 | 1.03 | 0.677 | 0.0227 | 0.0175 | 0.0128 | 0.333 | 0.321 | 0.0276 | 0.0244 | 0.0254 | 0.549 | 0.676 | 0.0907 | 0.0489 | 0.0524
3 | NCI-H596 | 1.19 | 1.06 | 1.17 | 0.996 | 0.818 | 0.991 | 0.974 | 1.09 | 0.994 | 0.844 | 1.05 | 0.988 | 0.899 | 0.891 | 0.502 | 1.12 | 1.05 | 1.18 | 1.04 | 0.397
4 | NCI-H647 | 1.15 | 0.386 | 0.0807 | 0.0919 | 0.0634 | 0.912 | 0.761 | 0.0902 | 0.1 | 0.0699 | 0.365 | 0.272 | 0.0949 | 0.129 | 0.102 | 0.487 | 0.175 | 0.0631 | 0.074 | 0.0589
5 | NCI-H650 | 0.982 | 1.05 | 0.62 | 0.333 | 0.215 | 0.78 | 0.99 | 0.669 | 0.236 | 0.204 | 0.315 | 0.339 | 0.384 | 0.302 | 0.196 | 0.882 | 1.11 | 0.63 | 0.324 | 0.263
6 | NCI-H727 | 0.775 | 0.765 | 0.829 | 0.238 | 0.342 | 0.795 | 0.766 | 0.784 | 0.322 | 0.229 | 0.871 | 0.915 | 0.875 | 0.538 | 0.411 | 0.6 | 0.491 | 0.56 | 0.298 | 0.305
7 | NCI-H838 | 1.02 | 0.878 | 0.141 | 0.121 | 0.0916 | 0.962 | 0.653 | 0.124 | 0.136 | 0.0816 | 0.405 | 0.45 | 0.217 | 0.195 | 0.2 | 0.978 | 0.849 | 0.669 | 0.633 | 0.604
8 | NCI-H1355 | 0.97 | 0.979 | 0.776 | 0.223 | 0.159 | 1.21 | 1.11 | 1.28 | 0.26 | 0.144 | 0.35 | 0.345 | 0.361 | 0.246 | 0.183 | 0.795 | 0.682 | 0.311 | 0.236 | 0.144
9 | NCI-H1437 | 0.825 | 0.7 | 0.247 | 0.151 | 0.0848 | 0.606 | 0.389 | 0.176 | 0.123 | 0.0811 | 0.531 | 0.636 | 0.504 | 0.311 | 0.241 | 1.1 | 1.07 | 0.651 | 0.271 | 0.201
10 | NCI-H1651 | 0.841 | 0.874 | 0.519 | 0.168 | 0.146 | 0.859 | 0.928 | 0.872 | 0.89 | 0.425 | 0.389 | 0.68 | 0.481 | 0.362 | 0.179 | 0.463 | 0.512 | 0.482 | 0.364 | 0.136
11 | NCI-H1666 | 0.682 | 0.595 | 0.234 | 0.261 | 0.219 | 0.78 | 0.687 | 0.244 | 0.228 | 0.171 | 0.74 | 0.804 | 0.641 | 0.364 | 0.363 | 0.725 | 0.902 | 0.531 | 0.35 | 0.292
12 | NCI-H1734 | 0.952 | 0.934 | 0.764 | 0.579 | 0.141 | 0.917 | 0.897 | 0.734 | 0.269 | 0.145 | 0.502 | 0.536 | 0.46 | 0.242 | 0.142 | 0.547 | 0.53 | 0.268 | 0.214 | 0.131
13 | NCI-H1755 | 1.06 | 0.972 | 0.772 | 0.27 | 0.165 | 0.966 | 0.9 | 0.817 | 0.391 | 0.189 | 0.695 | 0.772 | 0.671 | 0.643 | 0.391 | 0.47 | 0.468 | 0.362 | 0.234 | 0.195
14 | NCI-H1792 | 0.783 | 1.02 | 0.704 | 0.638 | 0.115 | 0.912 | 0.807 | 0.839 | 0.802 | 0.137 | 0.444 | 0.345 | 0.194 | 0.12 | 0.0575 | 0.494 | 0.302 | 0.0583 | 0.0445 | 0.0494
15 | NCI-H1915 | 0.883 | 1.06 | 0.894 | 0.571 | 0.0701 | 0.846 | 1.02 | 0.85 | 0.884 | 0.118 | 0.259 | 0.271 | 0.263 | 0.25 | 0.0807 | 0.587 | 0.719 | 0.219 | 0.12 | 0.0582
